Here are results for two molecules from patent US10449221B2, “Differentiation of stem cells into thyroid tissue” (TRUSTEES OF BOSTON UNIVERSITY, priority 2015, dated 2019).

Experiment [1] concerns hypothyroid mice. The experiment in a line: TSH response test. The class given is in vivo, mouse. The conditions noted are these: T3 4 μg per 100 g body weight i.p. daily for 4 days; all groups; data not shown. The procedure: To suppress endogenous production of T4 and TSH, T3 (4 μg per 100 g body weight (BW); Sigma T6397) was given daily by intraperitoneal injection for 4 days. 15 hours after the last injection, blood was taken from the submandibular vein to measure T4 and TSH after which a single injection of highly purified bTSH (Los Angeles Biomedical Research Institute, National Hormone and Peptide Program. Torrance, Calif.) at 30 mU per 100 g BW was given. 3 hours later blood samples were taken to assess the increase of total T4. Five mice per group (positive control group, Sham, and D30 ESCs recipients) were included in the experiment.

Experiment [2] has as its system ESC-derived definitive endoderm. The experiment in a line: Nkx2-1+ endoderm induction from ESC-derived endoderm, specification media day 6-14, flow cytometry on day 14. The class given is cell-based, mouse. Particulars: sequential withdrawal of each individual factor from the WFKBE+2 cocktail. The procedure: Definitive endoderm induction was performed in complete serum-free differentiation medium (cSFDM) consisting of 75% IMDM (Invitrogen 12440) and 25% Ham's Modified F12 medium (Cellgro 10-080-CV) supplemented with N2 and B27+RA (Invitrogen 17502-048 and 17504-44), 0.05% BSA (Invitrogen 15260-037), […] L-glutamine (Invitrogen 25030-081), 0.05 mg/ml ascorbic acid (Sigma A4544) and 4.5×10^-4M MTG (Sigma M6145) as previously described (Gouon-Evans et al., 2006, Longmire et al., 2012). Undifferentiated ESCs were trypsinized to form a single cell suspension and plated onto Petri dishes (500,000 cells/10 cm dish) resulting in the formation of embryoid bodies (EBs) over 60 hours. EBs were dissociated by trypsinization (0.05%, 1 min, 37° C.) and plated as single cells into cSFDM supplemented with 50 ng/ml Activin A (R&D systems 338-AC) for an additional 60 hours. For Anteriorization of endoderm, on day 5 (120 total hours of differentiation) EBs were plated onto p100 Petri dishes in Nog/SB media: cSFDM supplemented with 100 ng/ml mNoggin (R&D 1967-NG) and 10 μM SB431542 (Sigma S4317) as previously described (Longmire et al., 2012). For Nkx2-1+ endoderm induction, EBs were plated on gelatin coated 6 well plates at the equivalent density of 200,000 cells/well in Specification media: cSFDM supplemented as stated in the text with 100 ng/ml mWnt3a (R&D 1324-WN), 10 ng/ml hFGF10 (R&D 345-FG), 10 ng/ml mKGF (R&D 5028-KG), 10 ng/ml mBMP4 (R&D 5020-BP), 20 ng/ml hEGF (R&D 236-EG), 250 ng/ml mFGF2 (R&D 3139-FB) and 100 ng/ml Heparin Sodium Salt (Sigma […]2-1mCherry+ cells, or the populations otherwise indicated in the text were sorted using MoFlo or […] II SORP high speed cell sorters and replated onto gelatin-coated 24 well plates on day 12-14 at a density of 5×10^4 cells/well. Where indicated in the text, small molecule inhibitors were dissolved in DMSO according to manufacturer's instructions and added to the culture media from day 6 to 14 at the following working concentrations: Dorsomorphin 4 μM (Sigma P5499), PD98059 20 μM, SB203580 10 μM (both from Cell Signaling Technology, PHZ1164 and 5633), and LY294002 […] (Promega V1201).
On the technique in general: Flow cytometry measures light scatter and fluorescence of single cells or particles in a stream.

Experiment [3] has as its system ESC-derived Nkx2-1+ cells. The experiment in a line: Thyroid marker mRNA by real time RT-PCR on Day 26 after outgrowth of day 14 sorted Nkx2-1+ cells. Particulars: growth factors in specification media day 6 to 14; sorted day 14, replated until day 26. The class given is cell-based, mouse. The procedure: For Anteriorization of endoderm, on day 5 (120 total hours of differentiation) EBs were plated onto p100 Petri dishes in Nog/SB media: cSFDM supplemented with 100 ng/ml mNoggin (R&D 1967-NG) and 10 μM SB431542 (Sigma S4317) as previously described (Longmire et al., 2012). For Nkx2-1+ endoderm induction, EBs were plated on gelatin coated 6 well plates at the equivalent density of 200,000 cells/well in Specification media: cSFDM supplemented as stated in the text with 100 ng/ml mWnt3a (R&D 1324-WN), 10 ng/ml hFGF10 (R&D 345-FG), 10 ng/ml mKGF (R&D 5028-KG), 10 ng/ml mBMP4 (R&D 5020-BP), 20 ng/ml hEGF (R&D 236-EG), 250 ng/ml mFGF2 (R&D 3139-FB) and 100 ng/ml Heparin Sodium Salt (Sigma […]2-1mCherry+ cells, or the populations otherwise indicated in the text were sorted using MoFlo or […] II SORP high speed cell sorters and replated onto gelatin-coated 24 well plates on day 12-14 at a density of 5×10^4 cells/well. […] Relative gene expression, normalized to 18S control, was calculated as fold change in 18S-normalized gene expression, over baseline, using the 2^(-ΔΔCT) method. […]

In experiment [4] the test system is Nkx2-1GFP+; Pax8tdTomato trace+ iPSC-derived cells. Description: Lineage specification of bifluorescent reporter iPSC line by day 14. The class given is cell-based, mouse. Particulars: factor withdrawn or removed from the Nkx2-1 induction media, data not shown.

On to `N[C@@H](Cc1cc(I)c(Oc2ccc(O)c(I)c2)c(I)c1)C(=O)O` [T3, Triiodothyronine], for which the “endogenous TSH and T4 after exogenous T3” value in experiment [1] is “TSH suppression and abrogated T4 secretion”.

“Wingless-Type MMTV Integration Site Family protein, member 3A [Wnt3a]”: the “Nkx2-1+ endodermal induction efficiency” value in experiment [2] is on record as “dispensable for Nkx2-1 induction efficiency”. The “thyroid competence, thyroid marker mRNA on D26” value in experiment [3] is listed as “does not alter thyroid lineage specification”. Besides, the “efficiency of lineage specification, percent yield of GFP+/tdTomato+ cells” value in experiment [4] is “no significant impact”.
